Here are results for one molecule from patent US20110086850A1, “RADIOSENSITIZATION OF TUMORS WITH INDAZOLPYRROLOTRIAZINES FOR RADIOTHERAPY” (Board of Regents, The University of Texas System, priority 2008, published 2011).

In one series the test system is HN-5 tumor xenografts. Briefly: Tumor growth delay assay, HN-5 tumor xenografts. It is filed as in vivo, nude male mice. To be noted: AC480 120 mg/kg gavage once daily for 14 days. As for the experimental part:
The terms “dose enhancement ratio” and “dose enhancement factor” are used interchangeably herein and are used herein to measure the fold increase in cytotoxic efficacy of radiation when delivered in the presence of a radiosensitizer. In certain embodiments, dose enhancement ratio is calculated by dividing the radiation dose required to achieve a surviving fraction in the absence of the radiosensitizer with the radiation dose required to achieve the same surviving fraction in the presence of the radiosensitizer at a specified concentration. This calculation method can be used to assess the radiosensitizing effect of an radiosensitizer in an in vitro system, such as cells in culture. […]
The effect of AC480 on radioresponse was assessed by tumor growth delay assay using HN-5 tumor xenografts generated in nude male mice.
Specifically, HN-5 cells (1×10^6) were injected into the right leg of 3-4 month old nude male mice (nu-nu/Ncr) (SPF mice). […] Tumors were measured with calipers 3 times/week to determine tumor growth delay. […]

Series [1] relates to adenocarcinomas expressing HER1 and/or HER2 in salivary gland, breast, non-small cell lung, and gastric cancer cell lines. As to conditions: Wong et al., Clin. Cancer Res. 2006; cited from earlier work.
The test system of another series is γ-H2AX foci. The series can be described thus: γ-H2AX foci immunocytochemistry (DNA repair). The series is classed as cell-based. To be noted: 24 hrs after radiation; AC480 600 nM (FIG. 7). How it is done:
The control is shown as open circle and solid line.
(§1) The radiosensitization effect of AC480 was evaluated in vitro using head neck squamous cell carcinoma cells, HNSCC-10, which express HER2 only and have no detectable amount of HER1 protein, and HN-5 cells, which express high levels of HER1 and HER2 proteins. […] AC480 was added to cell cultures that contained either HN-5 or HNSCC-10 cells 6 hrs before and kept in the medium for additional 66 hrs after irradiation. The cancerous cells were then irradiated with graded single doses of γ-radiation. At various predetermined time points after irradiation, the cells were assessed: (a) for clonogenic survival using clonogenic survival assays; (b) for apoptosis using aTUNEL assay; (c) for cell cycle distribution with FACS; and (d) for protein expression related to the cell cycle, apoptosis, and DNA repair, using Western blotting and immunoprecipitation methods.
The extent of DNA repair is quantified by measuring the generation of nuclear foci at the site of DNA damage by phosphorylated H2AX (γ-H2AX), which is involved in the retention of repair and signaling factor complexes at sites of DNA double strand breaks. γ-H2AX is detected with antibodies to phosphorylated H2AX using traditional immunohistochemistry (See, e.g., Friesner et al., Mol. Biol. Cell. 2005, ^-16, 2566-2576; and Dote et al., Clin. Cancer Res. 2005, 11, 4571-4579). […]

For series [2], the system named is UMSCC-10 cells. The series can be described thus: Cell proliferation assay (MTT assay). As to conditions: AC480 50 nM—1 μM, 72 hrs. It is filed as cell-based. How it is done:
as §1
(§2) The effect of AC480 on cell proliferation of HN-5 and UMSCC-10 cells was determined using 3-[4,5-dimethylthiozol-2-yl]-2,5-diphenyltetrazolium bromide (MTT) assay. HN-5 and UMSCC-10 cells are plated in 96-well plates and treated with a series of concentrations of AC480. […] The cells are then lysed in 150 μL of ethanol/DMSO mixture (1:1), and the absorbance read at 540 nm using a 96-well plate reader.
(In general: Formazan colour is commonly taken as a measure of viable cells.)

Series [3] concerns HN-5 cells. Briefly: Cell proliferation assay (MTT assay). The series is classed as cell-based. To be noted: AC480 50 nM—1 μM, 72 hrs. As for the experimental part:
as §1, §2

In series [4] the test system is UMSCC-10 cells. Briefly: Cell-cycle analysis (FACS) after radiation. It is filed as cell-based. How it is done: as §1
(§3) Cell cycle distribution is measured by determining the ploidy of cells by staining the cells with fluorescent dye and sorting by FACS using a commercially available kit. AC480 increased radiation-induced accumulation of HN-5 but not in UMSCC-10 cells in the G1 cell cycle phase (FIG. 6).

The subject of series [5] is HN-5 cells. The series can be described thus: Cell-cycle analysis (FACS) after radiation. It is filed as cell-based. As for the experimental part: as §1, §3
Series [6] deals with UMSCC-10 cells. Briefly: TUNEL assay, radiation-induced apoptosis. The series is classed as cell-based. How it is done: as §1
(§4) Apoptotic cells are detected by in-situ labeling of fragmented DNA with enzymatically labeled nucleotides using the TUNEL method as described in commercial protocols or by following the procedure described in Sgonc et al., Trends in Genetic 1994, 10, 41-42. AC480 increased radiation-induced apoptosis in HN-5 but not in UMSCC-10 cells (FIG. 5).

Series [7] has as its system HN-5 cells. The series can be described thus: TUNEL assay, radiation-induced apoptosis. It is filed as cell-based. As for the experimental part:
as §1, §4

For series [8], the system named is UMSCC-10 cells. Briefly: Clonogenic survival assay with γ-irradiation. The series is classed as cell-based. As to conditions: AC480 300 or 600 nM from 6 hrs before to 66 hrs after 2, 4 or 6 Gy γ-rays. As for the experimental part:
as §1
(§5) HN-5 or UMSCC-10 cells were counted and plated. Twenty-four hours later, the cells in culture were then exposed to AC480 at 300 or 600 nM for 6 hrs. The cells were then irradiated with graded doses at 2, 4, or 6 Gy of γ-rays using a ^137Cs source (3.7 Gy/min). Sixty-six hours later, culture media with AC480 were removed and fresh media were added. Media change was also done for untreated control cells at the same time. After 11 to 14 days of incubation, colonies were counted. […] The dose enhancement ratio at survival fraction of 0.5 was 1.30 for 300 nM and 1.43 for 600 nM of AC480. Dose enhancement ratio was calculated by dividing the radiation dose required to achieve a surviving fraction of 0.5 in the absence of AC480 with the radiation dose required to achieve the same surviving fraction in the presence of AC480 at a specified concentration.

For series [9], the system named is HN-5 cells. The series can be described thus: Clonogenic survival assay with γ-irradiation. It is filed as cell-based. To be noted: for dose enhancement ratio at survival fraction of 0.5: cell line not named in the sentence (HN-5 by context). How it is done: as §1, §5

Regarding `Cc1c(NC(=O)OC[C@@H]2COCCN2)cn2ncnc(Nc3ccc4c(cnn4Cc4cccc(F)c4)c3)c12` [AC480], in the series with HN-5 tumor xenografts (before and during radiation (5 Gy×5 days)), the “effect on radioresponse of HN-5 tumors in vivo” value is “improve the radioresponse”. Further, the “enhancement factor (tumor growth delay)” value with HN-5 tumor xenografts (with XRT 5 Gy×5 consecutive days, HN-5 xenografts in nude mice) was 1.9. In addition, in series [1], the cytotoxicity result is reported as “cytotoxic”. Moreover, in the series with γ-H2AX foci, the “presence of γ-H2AX foci after radiation” value is recorded as “prolonged”. The “effect on cell growth (MTT)” value was “not” in the series with UMSCC-10 cells [2] and “inhibits the growth” in the series on HN-5 cells [3]. For the same molecule, the results for the “effect on radiation-induced accumulation of cells in the G1 cell cycle phase” value in the series with UMSCC-10 cells [4] and with HN-5 cells [5] were “not” and “increased”, respectively. In addition, the “effect on radiation-induced apoptosis (TUNEL)” value in the series on UMSCC-10 cells [6] is “not”; in the series with HN-5 cells [7] it was “increased”. The “effect on radiosensitivity (clonogenic survival)” value in the series with UMSCC-10 cells [8] is on record as “not”; with HN-5 cells [9] (HN-5 cells, AC480 300 or 600 nM from 6 hrs before to 66 hrs after 2, 4 or 6 Gy γ-rays), “significantly enhanced”. The “dose enhancement ratio at survival fraction of 0.5” value with HN-5 cells [9] (300 nM AC480) turned out to be 1.30; in the series with HN-5 cells [9] (600 nM AC480), 1.43.
